Source: patent US20070172471A1, “Method for identifying an anti- streptococcal agent and its use for treating streptococcal infections” (Hansa Medical AB, priority 2003, published 2007)
Peptide text beside a SMILES is read from it.

T1: fibrinogen (Homo sapiens, UniProt P02671+P02675+P02679)
T1 sequence (P02671 20-644 isoform P02671-2 limits assumed): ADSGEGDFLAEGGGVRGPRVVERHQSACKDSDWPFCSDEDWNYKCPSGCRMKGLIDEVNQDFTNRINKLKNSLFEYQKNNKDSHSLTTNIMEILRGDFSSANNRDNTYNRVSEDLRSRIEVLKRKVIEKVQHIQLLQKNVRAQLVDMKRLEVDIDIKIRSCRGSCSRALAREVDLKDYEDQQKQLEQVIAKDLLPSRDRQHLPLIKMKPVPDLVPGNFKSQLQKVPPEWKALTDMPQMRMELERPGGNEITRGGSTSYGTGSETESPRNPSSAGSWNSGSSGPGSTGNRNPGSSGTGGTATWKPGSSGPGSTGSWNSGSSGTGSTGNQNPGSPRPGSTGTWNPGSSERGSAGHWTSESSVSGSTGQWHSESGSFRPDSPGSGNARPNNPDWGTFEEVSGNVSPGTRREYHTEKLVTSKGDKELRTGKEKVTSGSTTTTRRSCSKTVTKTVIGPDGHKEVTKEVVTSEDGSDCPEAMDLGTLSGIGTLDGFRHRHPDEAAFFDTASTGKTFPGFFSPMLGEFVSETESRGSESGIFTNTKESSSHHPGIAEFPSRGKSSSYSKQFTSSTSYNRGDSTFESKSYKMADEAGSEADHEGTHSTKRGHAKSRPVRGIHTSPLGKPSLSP
T1 sequence (P02675 31-491): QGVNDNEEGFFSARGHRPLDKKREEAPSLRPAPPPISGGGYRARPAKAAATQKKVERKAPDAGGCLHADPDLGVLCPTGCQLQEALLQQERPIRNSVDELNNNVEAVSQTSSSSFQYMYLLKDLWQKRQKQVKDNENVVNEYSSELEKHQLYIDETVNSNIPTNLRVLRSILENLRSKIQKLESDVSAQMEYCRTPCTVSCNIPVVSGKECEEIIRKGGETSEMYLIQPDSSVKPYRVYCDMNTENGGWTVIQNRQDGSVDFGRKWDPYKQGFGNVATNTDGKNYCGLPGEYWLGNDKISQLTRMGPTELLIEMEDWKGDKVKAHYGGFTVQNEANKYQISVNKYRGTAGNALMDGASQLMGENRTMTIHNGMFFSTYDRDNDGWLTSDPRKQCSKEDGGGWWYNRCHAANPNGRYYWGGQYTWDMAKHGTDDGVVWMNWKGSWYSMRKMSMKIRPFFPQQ
T1 sequence (P02679 27-453): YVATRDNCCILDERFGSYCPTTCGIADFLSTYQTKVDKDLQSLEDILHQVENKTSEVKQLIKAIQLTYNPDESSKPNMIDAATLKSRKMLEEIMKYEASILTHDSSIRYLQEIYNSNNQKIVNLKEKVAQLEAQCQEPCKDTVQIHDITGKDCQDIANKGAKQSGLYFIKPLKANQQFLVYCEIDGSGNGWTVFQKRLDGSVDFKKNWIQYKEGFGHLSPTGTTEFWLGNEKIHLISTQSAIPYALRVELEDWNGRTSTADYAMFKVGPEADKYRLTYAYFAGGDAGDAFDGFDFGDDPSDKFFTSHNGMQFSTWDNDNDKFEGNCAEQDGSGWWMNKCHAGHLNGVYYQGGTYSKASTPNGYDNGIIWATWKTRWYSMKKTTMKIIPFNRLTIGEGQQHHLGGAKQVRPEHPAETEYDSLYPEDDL


Columns and labels:
[1] = test system: M1 protein-induced release of HBP from PMNs in human blood; details: M1 protein 1 μg/ml, 30 min 37° C., FIG. 2 and FIG. 5B
Procedure: (§1) HBP release. 100 μl human blood were diluted in PBS to a final volume of 1.0 ml and incubated with various PMNs-activating components for 30 min at 37° C. Cells were centrifuged (300×g for 15 min) and the supernatant was analyzed by sandwich ELISA. In order to quantify the total amount of HBP in blood, cells were lysed with 0.02% (v/v) Triton X-100, and pelleted as described above.

[2] = test system: mice of the C57BL/6 strain; details: for breathing of mice: thirty minutes after i.v. M1 protein 15 μg/animal, alone or plus peptide 400 μg/animal; for lung damage after injection of the protein alone, scanning electron microscopy / lung lesions after injection of the protein alone, light microscopy: i.v., M1 protein 15 μg/animal, 30 min
PMNs in human blood = assay: HBP release in human blood by streptococcal and other PMN-activating components; format: cell-based; details: for release of HBP: added to human blood, HBP in supernatant by ELISA, FIG. 1
Procedure: as §1

fibrinogen [3] = target: T1, fibrinogen; assay: Fibrinogen binding on Western blot; details: literature statement, demonstrated in the applicant's blot probed with fibrinogen 2 μg/ml
Procedure: SDS-polyacrylamide gel electrophoresis, Western blotting, and immunoprinting. Proteins were separated by 12.5% (w/v) polyacrylamide gel electrophoresis in the presence of 1% (w/v) SDS (Laemmli, 1970, Nature, 227, 680-685). Molecular weight markers were from Sigma Chemical Co. (St. Louis, Mo.). The resolved proteins were visualized by the silver stain technique. Proteins were also transferred onto nitrocellulose membranes for 30 min at 100 mA (Khyse-Andersen, 1984, J. Biochem. Biophys. Methods, 10, 203-209). The membranes were blocked with PBS containing 5% (w/v) dry milk powder and 0.05% (w/v) Tween-20, pH 7.4. Immunoprinting of the transferred proteins was done according to Towbin et al. (Towbin et al., 1979, Proc. Natl. Acad. Sci. USA, 76, 4350-4354). Polyclonal antibodies against M1 protein, diluted 1:50000 in the blocking buffer, was used. Bound antibodies were detected using a peroxidase-conjugated secondary antibodies against rabbit IgG (dilution 1:3000) followed by a chemiluminescence detection method. Alternatively, membranes were blocked, incubated with fibrinogen (2 μg/ml) followed by immunodetection with antibodies to fibrinogen (1:1000) and peroxidase-conjugated secondary antibodies against rabbit immunoglobulin (1:3000 diluted).

Fibrinogen [4] = target: T2, Fibrinogen (human, UniProt P02671 20-630; P02675 31-491; P02679 27-453); assay: ligand blot: SDS-PAGE, transfer to nitrocellulose, probed with fibrinogen, immunodetection of bound fibrinogen
T2 construct: also called human fibrinogen; purified fibrinogen

Row | Molecule | effect on M1 protein-induced release of HBP [1] | release of HBP (PMNs in human blood; 30 min 37° C.) | also measured
1 | COc1cc2ncnc(Nc3cccc(Cl)c3)c2cc1OC [AG1478] | did not interfere with the secretion of HBP |  | 
2 | O=C(O)CN(CCOCCOCCN(CC(=O)O)CC(=O)O)CC(=O)O [EGTA] | blocked HBP release |  | 
3 | CN(C)CCCn1cc(C2=C(c3c[nH]c4ccccc34)C(=O)NC2=O)c2ccccc21 [GF109203] | did not interfere with the secretion of HBP |  | 
4 | N=C(N)NCCC[C@H](NC(=O)[C@H](Cc1c[nH]cn1)NC(=O)CN)C(=O)N1CCC[C@H]1C(=O)O [Gly-His-Arg-Pro] (H-GHRP-OH) |  |  | breathing of mice [2]: clearly affected
5 | O=S(=O)(NCCNC/C=C/c1ccc(Br)cc1)c1cccc2cnccc12 [H-89] | did not interfere with the secretion of HBP |  | 
6 | COc1cccc(-c2cc(=O)c3ccccc3o2)c1N [PD98059] | did not interfere with the secretion of HBP |  | 
7 | COc1ccc2c(c1)CC[C@@H]1[C@@H]2CC[C@]2(C)[C@@H](NCCCCCCN3C(=O)C=CC3=O)CC[C@@H]12 [U-73122] | did not interfere with the secretion of HBP |  | 
8 | CSCC[C@H](NC=O)C(=O)N[C@@H](CC(C)C)C(=O)N[C@@H](Cc1ccccc1)C(=O)O [fMLP, formyl-methionyl-leucyl-phenylalanine] |  | evoked secretion of HBP | 
9 | O=c1c(-c2ccc(O)cc2)coc2cc(O)cc(O)c12 [genistein] | blocked the release of HBP almost completely |  | 
10 | M1 protein: recombinant M1 protein of Streptococcus pyogenes expressed in E. coli (SEQ ID NO: 1) |  |  | HBP stored in PMNs mobilized (PMNs in human blood; M1 protein final concentration 1 μg/ml, human whole blood, 30 min 37° C., FIG. 1A): about 63%; M1 protein concentration of maximal release of HBP from PMNs (PMNs in human blood; blood diluted 1/10, FIG. 3B): 1 µg/mL; binding of fibrinogen (fibrinogen [3]): binds fibrinogen with high affinity; ratio of lung area containing protein aggregates versus total lung area ([2]; M1 protein alone i.v., six lung sections per animal, electron microscopy): 90±2%; lung damage after injection of the protein alone, scanning electron microscopy [2]: severe leakage of erythrocytes; lung lesions after injection of the protein alone, light microscopy [2]: severe hemorrhage and tissue destruction; breathing of mice [2]: clearly affected
11 | SpeB: streptococcal cysteine proteinase |  | did not induce HBP release | 
12 | hyaluronic acid |  | did not induce HBP release | 
13 | lipoteichoic acid |  | evoked secretion of HBP | 
14 | pertussis toxin | none of the two components inhibited the release of HBP |  | 
15 | Protein H (IgG-binding surface protein of S. pyogenes AP1), recombinant from E. coli (other, also called purified protein H) EGAKIDWQEEYKKLDEDNAKLVEVVETTSLENEKLKSENEENKKNLDKLSKENQGKLEKLELDYLKKLDHEHKEHQKEQQEQEERQKNQEQLERKYQREVEKRYQEQLQKQQQLETEKQISEASRKSLSRDLEASRAAKKDLEAEHQKLEAEHQKLKEDKQISDASRQGLSRDLEASRAAKKELEANHQKLEAEHQKLKEDKQISDASRQGLSRDLEASRAAKKELEANHQKLEAEAKALKEQLAKQAEELAKLRAGKASDSQTPDTKPGNKAVPGKGQAPQAGTKPNQNKAPMKETKRQLPST |  |  | binding result (Fibrinogen [4]): no binding
16 | protein H: IgG-binding surface protein of AP1 bacteria, closely related to M1 protein, does not bind fibrinogen (protein) EGAKIDWQEEYKKLDEDNAKLVEVVETTSLENEKLKSENEENKKNLDKLSKENQGKLEKLELDYLKKLDHEHKEHQKEQQEQEERQKNQEQLERKYQREVEKRYQEQLQKQQQLETEKQISEASRKSLSRDLEASRAAKKDLEAEHQKLEAEHQKLKEDKQISDASRQGLSRDLEASRAAKKELEANHQKLEAEHQKLKEDKQISDASRQGLSRDLEASRAAKKELEANHQKLEAEAKALKEQLAKQAEELAKLRAGKASDSQTPDTKPGNKAVPGKGQAPQAGTKPNQNKAPMKETKRQLPST |  | Only minute amounts | binding of fibrinogen (fibrinogen [3]): shows no interaction with fibrinogen; lung damage after injection of the protein alone, scanning electron microscopy [2]: did neither cause serious bleeding; lung lesions after injection of the protein alone, light microscopy [2]: no hemorrhage
